Assay type in all cases: cell-based
Assay [1] deals with C. albicans (ATCC 90028). The assay is described as follows: Zone of inhibition study (disc on agar plate). The following applies: radius around 12 mm disc, 24 hours at 37±1° C., triplicates, Flucanazole 25 μg/Disc. As to the method:
(§1) The microbicidal composite material was tested in triplicates against E. coli (ATCC25922), S. aureus (ATCC 25923), P. aeruginosa (ATCC 9027) and C. albicans (ATCC 90028). The test material was cut as a 12 mm diameter disc and placed on 90 mm agar plates spread with 100 μl of approximately 10^8 CFU/ml of each bacterial strain and incubated at 37±1° C. for 24 hours. For a negative control, a filter paper disc containing no antibiotic was used. The zone of inhibition (Radius in mm) around the discs was measured using a transparent ruler. The results of this test are tabulated as under Table-5.

The test system of assay [2] is E. coli (ATCC25922). The assay is described as follows: Zone of inhibition study (disc on agar plate). The note with it: radius around 12 mm disc, 24 hours at 37±1° C., triplicates, Ciprofloxacin 1 μg/Disc. As for the experimental part: as §1
For assay [3], the system named is P. aeruginosa (ATCC 9027). The assay is described as follows: Zone of inhibition study (disc on agar plate). The following applies: radius around 12 mm disc, 24 hours at 37±1° C., triplicates. As for the experimental part:
as §1

Assay [4] relates to S. aureus (ATCC 25923). Nature of the assay: Zone of inhibition study (disc on agar plate). The following applies: radius around 12 mm disc, 24 hours at 37±1° C., triplicates. As to the method: as §1
Assay [5] deals with C. albicans. The assay is described as follows: Residual microbes on ZOI disc after transfer to Nutrient broth. As for the experimental part: (§2) After 24 hours, the discs were transferred to Nutrient broth which was then incubated at 37±1° C. for another 24 hours. The broth contents were placed on Nutrient agar plates to measure the residual percentage of microbes present on the disc as a result of remaining on a lawn of bacteria overnight. Percentage survival was calculated as [number of CFU/ml in test substance/number of CFU/ml in control substance]. The killing percentage was calculated as 100-residual percentage. The results are tabulates as under Table-6.

For assay [6], the system named is E. coli. Described as above. As to the method:
as §2

In assay [7] the test system is P. aeruginosa. Described as above. As for the experimental part:
as §2

Assay [8] deals with S. aureus. The assay is described as above. As for the experimental part:
as §2

Assay [9] has as its system P. aeruginosa. The assay is described as follows: Bio film prevention assay (crystal violet, OD 570 nm). The note with it: Pseudomonas aeruginosa, 15 mm disc, Ciprofloxacin 1 ug/ml, versus control, read-out: % Inhibition, Percentage Effect in Bio film prevention assay. As for the experimental part: (§3) 15 millimeters (mm) Discs of the microbicidal composite material were cut and placed into 24 well plates containing approximately 10^8 CFU/ml in Tryptic Soy Broth (TSB) of P. aeruginosa and S. aureus respectively and incubated at 37±1° C. for the Bio film Prevention assay. Similarly, 15 millimeter (mm) Discs of the microbicidal composite material were cut and placed into 24 well plates containing overnight grown culture of P. aeruginosa and S. aureus respectively in TSB and further incubated for 24 hours at 37±1° C. for the disruption assay.
(§4) Further, plain filter paper discs were placed in culture control (C) wells with approximately 10^8 CFU/ml of the above bacteria in Tryptic Soy Broth (TSB) for both the Prevention and Disruption assay. After incubation, the contents were removed and washed four times with Phosphate Buffer saline (pH 7.2). A 500 μl of 0.1% crystal violet stain was added to each well and incubated for 20 minutes at room temperature, washed, and dried. Subsequently, 500 μl of ethanol supplemented with 2% acetic acid was added to each well for 30 min. The Optical Density (OD) of stained adherent Bio film was obtained by using a Tecan plate reader at 570 nm wavelength. Percentage inhibitions in the respective assays were calculated in comparison to the control.

Assay [10] has as its system S. aureus. The assay is described as above. The following applies: Staphylococcus aureus, 15 mm disc, Ciprofloxacin 1 ug/ml, versus control, read-out: % Inhibition, Percentage Effect in Bio film prevention assay. As to the method: as §3, §4
Assay [11] concerns P. aeruginosa. Nature of the assay: Bio film disruption assay (crystal violet, OD 570 nm). The following applies: Pseudomonas aeruginosa, overnight grown culture, 24 hours, 15 mm disc, Ciprofloxacin 1 ug/ml, read-out: % Inhibition, Percentage Effect in Bio film disruption assay. As to the method:
as §3, §4

Assay [12] deals with S. aureus. The assay is described as above. The following applies: Staphylococcus aureus, overnight grown culture, 24 hours, 15 mm disc, Ciprofloxacin 1 ug/ml, read-out: % Inhibition, Percentage Effect in Bio film disruption assay. As to the method:
as §3, §4

For assay [13], the system named is P. aeruginosa (ATCC 9027). The assay is described as follows: Rate of microbicidal effect upon contact (CFU enumeration over time). The following applies: Pseudomonas aeruginosa, 15 mm disc in approximately 10^8 CFU/ml, ciprofloxacin 1 μg/disc, read-out: killing percentage (inhibition of growth as percentage). As for the experimental part: (§5) Briefly, 15 millimeter (mm) discs of the microbicidal composite material were cut and placed into 24 well plates containing approximately 10^8 CFU/ml in Nutrient broth of S. aureus (ATCC 25923) & P. aeruginosa (ATCC 9027) respectively and incubated at 37±1° C. At intervals of 1, 5, 15, 30 and 60 minutes, broth samples were drawn and plated on nutrient agar plates and incubated for 24 hours at 37±1° C. for CFU enumeration. Two reference standards (ref-1, and ref-2) [Ref-1: Reference standard-I, includes a test material which is a cotton gauze material bonded with non siloxane based QAS and Ref-2: Reference standard-II includes a test material with active ingredient as silver Test Item refers to the ‘Microbicidal Composite Material’] and a disc containing 1 μg/disc ciprofloxacin. The results are tabulated in table 8 and table 9 as percentage recovery over time. Percentage survival was calculated as number of CFU/ml in test substance/number of CFU/ml in control substance. The killing percentage was calculated as 100-residual percentage.
(§6) FIG. 4 and FIG. 5 show the inhibition of growth as percentage in the Y-axis compared to the untreated control group.

Assay [14] concerns S. aureus (ATCC 25923). The description is as above. The following applies: Staphylococcus aureus, 15 mm disc in approximately 10^8 CFU/ml, ciprofloxacin 1 μg/disc, read-out: killing percentage (inhibition of growth as percentage). As to the method: as §5, §6
The mark [15] stands for this setting: disc from ZOI assay in Nutrient broth for another 24 hours, CFU/ml versus control.

The inhibition is the share of the control response that was lost under treatment.

Each structure is given as a SMILES string. Like-named read-outs stand apart in the source and are kept apart here.

On to `OC(Cn1cncn1)(Cn1cncn1)c1ccc(F)cc1F` [Flucanazole], for which the “ZOI (in mm) Mean” value in assay [1] was determined as 3.60 mm.
As for `O=C(O)c1cn(C2CC2)c2cc(N3CCNCC3)c(F)cc2c1=O` [Ciprofloxacin], the entries for the “ZOI (in mm) Mean” value in assay [2], in assay [3] and in assay [4] were 11.00 mm, 9.50 mm and 11.55 mm, respectively. The Killing % in assay [5] (100-residual percentage) is 99.9902%; in assay [6] (100-residual percentage), 99.9997%; in assay [7] (100-residual percentage) it was 99.9994%; in assay [8] (100-residual percentage) it was 99.9921%. The Residual % in assay [5] (setting [15]) worked out at 0.010%; in assay [6] (setting [15]), 0.000%; in assay [7] (setting [15]), 0.001%; in assay [8] (setting [15]), 0.008%. Moreover, the inhibition at 1 µg/mL in assay [9] worked out at 89.8%; in [10], 93.1%; in assay [11], 91.4%; in assay [12], 88.2%. In addition, the inhibition at 1 µg/disc in assay [13] (ATCC9027, 1 min, 1 minute) came out at 0%; in [13] (ATCC9027, 5 min, 5 minutes), 32.4%; in assay [13] (ATCC9027, 0.25 h, 15 minutes) it was 87.4%; in assay [13] (ATCC9027, 0.5 h, 30 minutes) it was 98%; in assay [13] (ATCC9027, 1 h, 60 minutes), 99.9%; in [14] (ATCC25923, 1 min, 1 minute) it was 0%. Besides, the inhibition at 1 µg/disc in assay [14] (ATCC25923, 5 min, 5 minutes) stood at 32%; in assay [14] (ATCC25923, 0.25 h, 15 minutes), 86.2%; in [14] (ATCC25923, 0.5 h, 30 minutes), 79.1%; in assay [14] (ATCC25923, 1 h, 60 minutes), 98.8%.

Values taken from patent US9566363B2, “Microbicidal composite material” (priority 2013, dated 2017).
